Read-outs that look alike come from different tables or passages of the source.
Assays:
[1] = Chemical stability of bismuth drugs at different pH; conditions: data not shown; for effect of the thiol-containing drug on hydrolysis of CBS: acidic conditions
SARS-CoV-2 [2] = format: cell-based; conditions: read-out: EC50 VeroE6
pseudo-SARS-CoV-2-Luc = format: cell-based
SARS-CoV-2 [3] = test: Viral load reduction assay in VeroE6 cells; format: cell-based
Procedure: Viral load reduction assay was performed on VeroE6 and Caco2 cells, as described previously with modifications^41. Supernatant samples from the infected cells (0.1 MOI) were harvested at 48 hours post-infection (hpi) for qRT-PCR analysis of virus replication. Briefly, 100 μL of viral supernatant were lyzed with 400 μL of AVL buffer and then extracted for total RNA with the QIAamp viral RNA mini kit (Qiagen, Hilden, Germany). Real-time one-step qRT-PCR was used for quantitation of SARS-CoV-2 viral load using the QuantiNova Probe RT-PCR kit (Qiagen) with a LightCycler 480 Real-Time PCR System (Roche) as previously described^15. Each […] mixture contained 10 μL of 2×QuantiNova Probe RT-PCR Master Mix, 1.2 μL of RNase-free water, 0.2 μL of QuantiNova Probe RT-Mix, 1.6 μL each of 10 μM forward and reverse primer, 0.4 μL of 10 μM probe, and 5 μL of extracted RNA as the template. Reactions were incubated at 45° C. for 10 min for reverse transcription, 95° C. for 5 min for denaturation, followed by 45 cycles of 95° C. for 5 s and 55° C. for 30 s. Signal detection and measurement were taken in each cycle after the annealing step. The cycling profile ended with a cooling step at 40° C. for 30 s. The primers and probe sequences are against the RNA-dependent RNA polymerase/Helicase (RdRP/Hel) gene region of SARS-Cov-2 previously described^42.
Cell culture supernatants were collected at 48 hour-post-infection (hpi) for viral RNA extraction and quantitative reverse transcription-polymerase chain reaction (qRT-PCR) as previously described with modifications(13, 14). The primers and probe sequences were against the RNA-dependent RNA polymerase/Helicase (RdRP/Hel) gene region of SARS-CoV-2: forward primer: 5′-[…]-3′ (SEQ ID NO:6); reverse primer: 5′-[…]-3′(SEQ ID NO:7); specific probe: 5′-[…]-IABkFQ-3′(SEQ ID NO:8). The viral load reduction assay experiments were performed in triplicate and repeated twice for confirmation.

SARS-CoV-2 [4] = format: cell-based
SARS-CoV-2 M^pro [5] = molecular target: T1, SARS-CoV-2 M^pro (Severe acute respiratory syndrome coronavirus 2, UniProt P0DTD1); test: biochemical; format: biochemical
SARS-CoV-2 [6] = format: cell-based; conditions: 24 h, 1000 µM
SARS-CoV-2 PL^pro [7] = molecular target: T2, SARS-CoV-2 PL^pro (Severe acute respiratory syndrome coronavirus 2, UniProt P0DTD1); test: PL^pro activity inhibition assay (FRET); format: biochemical
SARS-CoV-2 [8] = test: Golden Syrian hamster model, oral treatment (NAC studies); format: in vivo
VeroE6 cells = test: Cell viability assay (CellTiterGlo), VeroE6; format: cell-based, African green monkey
Procedure: (§1) The CellTiterGlo® luminescent assay (Promega Corporation, Madison, Wis., USA) was performed to detect the cytotoxicity of the selected compounds as previously described^39. Briefly, VeroE6 cells (4×10^4 cells per well) and Caco2 cells (4×10^4 cells per well) were incubated with different concentrations of the individual compound in 96-well plates for 48 hrs, followed by the addition of the substrate and measurement of luminance 10 min later. Ridaura and Au(PEt3)Cl were dissolved in DMSO, and the final percentage of DMSO was kept at 1% in culture medium.

SARS-CoV-2 [9] = conditions: 0.1 MOI, 48 hpi, non-toxic concentrations
Caco2 cells = test: Cell viability assay (CellTiterGlo), Caco2; format: cell-based, human; conditions: Caco-2
Procedure: as §1

SARS-CoV-2 M^pro [10] = molecular target: T1, SARS-CoV-2 M^pro; test: Bi^3+ binding to M^pro (UV-vis kinetics and titration)
SARS-CoV-2 PL^pro [11] = molecular target: T2, SARS-CoV-2 PL^pro; test: Zinc release assay (FluoZin-3); format: binding
Procedure: The release of Zn^2+ from SARS-CoV-2 PL^pro upon bismuth drug exposure was perform by a previously described method with zinc-specific fluorophore FluoZin™-3 (Invitrogen/Life Technologies) (21). Briefly, SARS-CoV-2 PLpro (20 μM) was incubated with 0, 2, 5, 20 mol eq. Bi^3+ (as CBS), for 180 min at room temperature, followed by the addition of FluoZin-3 (1 μM) in a total reaction volume of 100 μL (50 mM Tris-HCl, pH7.4) at room temperature. Fluorescence (λex=494 nm, λem=530 nm) was detected and converted into Zn^2+ concentrations using standard curves prepared from […] under identical condition. The signals of CBS at corresponding concentrations after mixing with FluoZin™-3 were recorded for background subtraction. The assay was performed in triplicate and the results were plotted as the [Zn^2+]/[PL^pro] verse [Bi^3+]/[PL^pro].

SARS-CoV-2 PL^pro [12] = molecular target: T2, SARS-CoV-2 PL^pro; test: Bi^3+ binding to PL^pro (UV-vis kinetics and titration)
SARS-CoV-2 M^pro [13] = molecular target: T1, SARS-CoV-2 M^pro; test: Ellman's assay of free cysteine; format: binding
Procedure: Amount of free cysteine was assayed spectrophotometrically with DTNB [5,5′-dithiobis-(2-nitrobenzoic acid)]according to a previously described method^(22). Briefly, SARS-CoV-2 M^pro (15 μM) was incubated with 0, 2, 5, 20 mol eq. […] Equal volume of DTNB (2 mM) was added to the reaction mix in a total reaction volume of 100 μL. After the incubation for 90 min, absorption of 412 nm which indicated the release of 5-thiobenzoate anion, was detected and converted into thiol concentrations using standard curves prepared with reduced glutathione (GSH) under identical condition. The assay was performed in triplicate and the results were plotted as the [free cysteine]/[M^pro] verse [Bi^3+]/[M^pro].

[14] = 48 hrs incubation, concentration based on metal content, read-out: CC50 VeroE6
[15] = 0.1 MOI, 48 hpi, non-toxic concentrations

C[C@H](CS)C(=O)N1CCC[C@H]1C(=O)O [CPL, captopril]
effect of the thiol-containing drug on hydrolysis of CBS [1]: prevent hydrolysis of CBS

O=C(O)c1ccccc1S [TSA, thiosalicylic acid]
effect of the thiol-containing drug on hydrolysis of CBS [1]: prevent hydrolysis of CBS

Bi(TPyP) (TPyP: tetra(4-pyridyl)porphyrin)
EC50 (SARS-CoV-2 [2]): 7.5 µM
percent virus entry lowered (pseudo-SARS-CoV-2-Luc): ~53%
maximal viral load reduction in VeroE6 cell culture supernatant (SARS-CoV-2 [3]): ~3 logs
maximal viral load reduction in the VeroE6 cell lysate (SARS-CoV-2 [3]): ~1 logs
effect on virus replication, drug added during pre-incubation (cells pre-treatment) (SARS-CoV-2 [4]): significantly suppressed virus replication
effect on virus replication, drug added during virus co-infection (SARS-CoV-2 [4]): significantly suppressed virus replication
effect on virus replication, drug maintained after virus entry (post-entry) (SARS-CoV-2 [4]): no detectable effect

CC(=O)N[C@@H](CS)C(=O)O [NAC, N-acetyl cysteine]
IC50 (SARS-CoV-2 M^pro [5]): > 450 µM
inhibition of M^pro at comparable concentrations (SARS-CoV-2 M^pro [5]): negligible inhibitory
viral NP antigen-positive cells (SARS-CoV-2 [6]): 59.75%
anti-SARS-CoV-2 activity in Vero E6 culture supernatant (SARS-CoV-2 [3]; up to 2000 μM): negligible anti-SARS-CoV-2 activity
IC50 (SARS-CoV-2 PL^pro [7]): > 150 µM
inhibition of PL^pro at comparable concentrations (SARS-CoV-2 PL^pro [7]): negligible inhibitory
lung pathology (SARS-CoV-2 [8]; H&E): partially relieved lung pathology
pulmonary viral load compared with vehicle group (SARS-CoV-2 [8]; oral CBS 300 mg/kg or NAC 370 mg/kg, 2 dpi): No statistically significant difference

N[C@@H](CCC(=O)N[C@@H](CS)C(=O)NCC(=O)O)C(=O)O [GSH, glutathione]
effect of the thiol-containing drug on hydrolysis of CBS [1]: prevent hydrolysis of CBS

CC[PH](CC)(CC)[Au][S][C@@H]1O[C@H](COC(C)=O)[C@@H](OC(C)=O)[C@H](OC(C)=O)[C@H]1OC(C)=O [Ridaura, Auranofin]
CC50 (VeroE6 cells; [14]): 14.2 ± 1.3 µM

Bi(TPP) (TPP: tetraphenylporphyrinate)
maximal viral load reduction in Caco2 cell culture supernatant (SARS-CoV-2 [9]): ~3 logs
maximal viral load reduction in the Caco2 cell lysate (SARS-CoV-2 [9]): ~2 logs
EC50 (SARS-CoV-2 [2]; SARS-CoV-2 plaque reduction, concentration based on metal content): 3.9 ± 1.2 µM
maximal viral load reduction in VeroE6 cell culture supernatant (SARS-CoV-2 [3]; [15]): ~3 logs
maximal viral load reduction in the VeroE6 cell lysate (SARS-CoV-2 [3]; [15]): ~1 logs
effect on virus replication, drug maintained after virus entry (post-entry) (SARS-CoV-2 [4]; MOI=2, viral titer at 9 hpi): functioned at post-entry stages
CC50 (VeroE6 cells): > 400 µM
CC50 (Caco2 cells): > 400 µM

[Bi+3] [Bi^3+]
molar ratio [Bi3+]/[SARS-CoV-2 Mpro] at plateau (SARS-CoV-2 M^pro [10]; absorption at 340 nm): ~1
Kd (SARS-CoV-2 M^pro [10]; read-out: estimated dissociation constant (Kd), M^pro): 0.6 µM
Zn^2+ released from PL^pro (SARS-CoV-2 PL^pro [11]): ~0.78 eq.
molar ratio [Bi3+]/[SARS-CoV-2 PL^pro] at plateau (SARS-CoV-2 PL^pro [12]; absorption at 340 nm): ~3
Kd (SARS-CoV-2 PL^pro [12]; read-out: estimated dissociation constant (Kd), PL^pro): 1.13 µM
decrease of free cysteine in M^pro (SARS-CoV-2 M^pro [13]): ~1 eq.

CC(C)(S)[C@@H](N)C(=O)O [PCM, penicillamine]
effect of the thiol-containing drug on hydrolysis of CBS [1]: prevent hydrolysis of CBS

CCP(CC)CC.[Au+].[Cl-] [Au(PEt3)Cl, chloro(triethylphosphine)gold(I)]
CC50 (VeroE6 cells; [14]): 13.5 ± 1.8 µM

bismuth subgallate [BSG]
stabilisation of the bismuth drug by NAC ([1]; low pH): stabilized

From patent US20230218663A1, “COMPOSITIONS AND METHODS FOR TREATING A SARS-COV-2 INFECTION” (priority 2020, published 2023)
